Values of other authors as cited in US12110270B2, “Systems and methods for generation of hyperpolarized materials” (NVISION IMAGING TECHNOLOGIES GMBH, priority 2021, dated 2024).
Where two headings read alike, the source gives them in different places.

- maximal mole fraction in n-heptane (14.8° C.): 0.935
- maximal mole fraction in n-heptane (−29.2° C.): 0.02
SMILES: CC(=O)O [acetic acid]
